Earlier results as cited in US12678407B2 (HANMI PHARM. CO., LTD., priority 2020, dated 2026).

Details: according to FDA Clinical Pharmacology Biopharmaceutics Review

Row | bioavailability | SMILES
1 | 87% | CCOc1ccc(Cc2cc([C@@H]3O[C@H](CO)[C@@H](O)[C@H](O)[C@H]3O)ccc2Cl)cc1 [dapagliflozin, (2S,3R,4R,5S,6R)-2-[4-chloro-3-(4-ethoxybenzyl)phenyl]-6-(hydroxymethyl)tetrahydro-2H-pyran-3,4,5-triol]
2 | 78% | N[C@@H](CC(=O)N1CCn2c(nnc2C(F)(F)F)C1)Cc1cc(F)c(F)cc1F [sitagliptin, (R)-3-amino-1-(3-(trifluoromethyl)-5,6-dihydro-[1,2,4]triazole[4,3-a]pyrazin-7(8H)-yl)-4-(2,4,5-trifluorophenyl)butan-1-one]
